We go through eight compounds from patent publication US6482830B1 (SuperGen, Inc., priority 2002, dated 2002).

Read-outs that look alike come from different tables or passages of the source.

The conditions of data set [1]: cited from earlier work.
Data set [2] has as its system human colon cancer xenografts. As to conditions: in vivo; cited from earlier work.
The conditions of data set [3]: cited from earlier work. The source holds these as a separate data set.
The target of the next data set is T1, DNA topoisomerase I (Homo sapiens, UniProt P11387).
T1 sequence (P11387 1-765): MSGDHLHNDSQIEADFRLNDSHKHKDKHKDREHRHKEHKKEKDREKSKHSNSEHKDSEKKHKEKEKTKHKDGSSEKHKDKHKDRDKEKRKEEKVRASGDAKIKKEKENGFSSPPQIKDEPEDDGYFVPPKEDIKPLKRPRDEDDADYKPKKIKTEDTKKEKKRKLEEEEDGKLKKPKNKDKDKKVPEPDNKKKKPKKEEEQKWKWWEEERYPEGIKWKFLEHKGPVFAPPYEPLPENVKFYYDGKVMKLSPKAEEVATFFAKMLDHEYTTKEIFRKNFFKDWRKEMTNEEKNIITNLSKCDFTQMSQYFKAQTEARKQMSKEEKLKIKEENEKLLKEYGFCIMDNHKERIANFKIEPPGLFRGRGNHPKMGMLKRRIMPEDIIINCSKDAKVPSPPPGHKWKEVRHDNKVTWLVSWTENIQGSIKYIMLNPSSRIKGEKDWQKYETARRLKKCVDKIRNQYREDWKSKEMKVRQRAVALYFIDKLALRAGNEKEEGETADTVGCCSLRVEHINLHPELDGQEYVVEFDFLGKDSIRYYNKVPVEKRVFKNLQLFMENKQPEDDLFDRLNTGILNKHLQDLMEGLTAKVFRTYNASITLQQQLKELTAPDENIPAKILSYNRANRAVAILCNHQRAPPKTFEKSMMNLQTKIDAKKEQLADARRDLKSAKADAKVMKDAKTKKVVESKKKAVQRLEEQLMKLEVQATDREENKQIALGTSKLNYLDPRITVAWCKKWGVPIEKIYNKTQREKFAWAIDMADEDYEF
As to conditions: by stabilizing the cleavable complex; cited from earlier work.

The conditions of data set [4]: for Hygroscopicity: from moisture sorption 5 to 95% RH; for Weight % chg: 25 deg C. The method, then: Moisture sorption/desorption data were collected on a VTI SGA-100 moisture balance system. […] The samples were not dried prior to analysis. Equilibrium criteria used for analysis were less than 0.0100 weight % change in 5 minutes with a maximum equilibration time of 3 hours if the weight criterion was not met. Data were not corrected for the initial moisture content of the samples.

For data set [5] the following is noted: ground in an amalgamator for 10 minutes.
The conditions of data set [6]: closed vial, 31 days, ambient conditions.
The procedure of data set [7]:
Dehydration/desolvation studies were conducted by placing a sample under continuous vacuum at room temperature for 14 days. An XRPD pattern was obtained on the remaining solid and compared to the starting material.

The test system of the next data set is human tumor xenografts. The note with it: cited from earlier work.

`CC[C@@](O)(C(=O)[O-])c1cc2n(c(=O)c1CO)Cc1cc3ccccc3nc1-2.[Na+]` [Sodium camptothecin]: the “Side effects in clinical trials” value in data set [1] (administered intravenously) was “myelosuppression and hemorrhagic cystitis”. For the same compound, the “Antineoplastic activity in clinical trials” value in [1] (solubilized by sodium hydroxide in water, early 1970's trials) is on record as “found to have antineoplastic activity”.
In the case of `CC[C@@]1(O)C(=O)OCc2c1cc1n(c2=O)Cc2cc3cc4c(cc3nc2-1)OCO4` [10,11,MD, 10,11-methylendioxy-20(S)-camptothecin], the “Anticancer activity against human colon cancer xenografts” value in [2] is reported as “high anticancer activity”.
Turning to `CC[C@@]1(O)C(=O)OCc2c1cc1n(c2=O)Cc2cc3ccccc3nc2-1` [Camptothecin], the Water solubility entry in [3] is reported as “poorly water soluble”. Moreover, at DNA topoisomerase I, the “Inhibition of DNA topoisomerase I” value was “inhibit DNA topoisomerase I”.
Turning to `CC[C@@]1(O)C(=O)OCc2c1cc1n(c2=O)Cc2cc3c([N+](=O)[O-])cccc3nc2-1` [Form A, 9-nitro-20(S)-camptothecin], the Hygroscopicity entry in [4] is “not hygroscopic”. The “Change of crystallinity on grinding (XRPD)” value in [5] was “losing crystallinity after grinding”.
With `CC[C@@]1(O)C(=O)OCc2c1cc1n(c2=O)Cc2cc3c([N+](=O)[O-])cccc3nc2-1` [Form B, 9-nitro-20(S)-camptothecin], in data set [4] (5 to 95% RH), the “Total weight gained in the region from 5 to 95% RH” value was 2.21%. In addition, the Weight % chg in data set [4] (desorption, about 5% RH) is given as −1.0408%; in data set [4] (desorption, about 15% RH), −0.5118%; in data set [4] (desorption, about 25% RH), −0.1151%; in [4] (desorption, about 35% RH), 0.1861%; in [4] (desorption, about 45% RH), 0.4359%; in [4] (desorption, about 55% RH), 0.6637%. The Weight % chg in data set [4] (desorption, about 65% RH) was 0.8473%; in [4] (desorption, about 75% RH), 1.0310%; in data set [4] (desorption, about 85% RH), 1.1706%; in data set [4] (sorption, about 5% RH), −0.9820%; in data set [4] (sorption, about 15% RH), −0.4898%; in data set [4] (sorption, about 25% RH), −0.1151%. In addition, the Weight % chg turned out to be 0.1788% in data set [4] (sorption, about 35% RH); 0.4286% in [4] (sorption, about 45% RH); 0.6416% in data set [4] (sorption, about 55% RH); 0.8314% in data set [4] (sorption, about 65% RH); 0.9869% in [4] (sorption, about 75% RH); 1.1118% in data set [4] (sorption, about 85% RH). For the same compound, the Weight % chg in [4] (sorption, about 95% RH) turned out to be 1.2293%; in data set [4] (start, elapsed time 0.0 min) it was 0.0000%. For the same compound, the “Water lost upon equilibration at 5% RH” value in data set [4] (equilibration at 5% RH) came out at 0.98%. Also, in [4], the Hygroscopicity entry is “relatively hygroscopic”. Moreover, in data set [6], the “Stability of the crystalline polymorph on storage (XRPD pattern)” value was “relatively stable”.
As for `CC[C@@]1(O)C(=O)OCc2c1cc1n(c2=O)Cc2cc3c(N)cccc3nc2-1` [Form 9AC, 9-Amino-20(S)-Camptothecin], in data set [2], the “Anticancer activity against human colon cancer xenografts” value is recorded as “high anticancer activity”.
For the compound `CC[C@@]1(O)C(=O)OCc2c1cc1n(c2=O)Cc2cc3c([N+](=O)[O-])cccc3nc2-1` [Form C, 9-nitro-20(S)-camptothecin], the “Change of form on desolvation under vacuum” value in data set [7] was “becomes amorphous”.
Consider `CC[C@@]1(O)C(=O)OCc2c1cc1n(c2=O)Cc2cc3c([N+](=O)[O-])cccc3nc2-1` [9-nitrocamptothecin, 9-nitro-20(S)-camptothecin], for which the “Growth of human tumor xenografts” value with human tumor xenografts (immunodeficient nude mice) is “inhibited the growth”. Moreover, in the data set on human tumor xenografts (mouse, in vivo), the “Activity against human tumor xenograft models” value is “high activity”. The “Regression of established human tumors” value with human tumor xenografts (xenografts in nude mice) was “induced regression”.
